In general, solubility refers to how much of the substance goes into solution per volume.

Experimental findings from US9988372B2, “Crystalline form of 5-chloro-N-({(5S)-2-oxo-3-[4-(5,6-dihydro-4H-[1,2,4]triazin-1-yl)phenyl]-1,3-oxazolidin-5-yl}methyl)thiophene-2-carboxamide methanesulfonate and pharmaceutical composition comprising same” (GREEN CROSS CORPORATION, priority 2014, dated 2018) are described below.

Entries after “also recorded” stand apart in the source; their conditions may differ.

Common to all, as to assay type: physicochemical
Data set [1] can be described thus: Stability in solvent slurry system (interconversion of crystalline forms, final form identified by DSC). Conditions: for Final form (DSC peak): slurry; for Interconversion of crystalline form while stirred in solvent: stirred in the solvent for 24 hours, various solvents (summary of Table 4). As to the method:
1) Measurement of Stability in Solvent Slurry System
In order to determine whether one crystalline form is interconverted into another crystalline form in a stirred solvent, a slurry test was performed in different solvents at room temperature.
First, an automated polyblock reactor was filled with each of the solvents listed in Table 4 below at room temperature (30±5° C.). […] Thereafter, an anti-solvent listed in Table 4 below (n-butanol or IPA) was added into the reactor for 30±15 minutes and stirred for 30±15 minutes until a transparent solution was obtained. The resultant was cooled to a temperature of 0±5° C., stirred for 2-3 hours, and then filtered at 0±5° C. The obtained material was dried at 60±5° C. for 3 to 4 hours in VTD, and then DSC analysis was performed for the obtained sample to identify the final crystalline form.
DSC analysis was performed for the obtained sample to identify the final crystalline form.
In general terms: Differential scanning calorimetry records heat flow against a reference as temperature is scanned.

Data set [2] in a line: Stability under physical stimulus (multi-milling, manual grinding, humidification; final form identified by DSC). The note with it: methanesulfonate; for Stability under physical stimulus: milling, grinding and humidification (summary of Table 6). The protocol: 3) Measurement of Stability Under Physical Stimulus
Multi-milling, manual grinding and humidification test were performed for the crystalline forms of the present invention to confirm their stability under physical stimulus. For multi-milling test, each of Crystalline Forms 1 and 5 was milled at 3,000 rpm by using a prototype multi-mill instrument (Sreenex Machines Pvt. Ltd.). For manual grinding, each of the crystalline forms was gradually ground by using a pestle and mortar. In the humidification test, Crystalline Forms 1 and 5 were stored at 30° C. and 90% RH for 24 hours.
DSC analysis was performed for the crystalline forms obtained from the tests to identify the final crystalline form.

Data set [3] is described as follows: Solubility in methanol solvent. The note with it: in the methanol solvent; methanesulfonate.
Protocol: The solubility of each of Crystalline Forms 1 and 5 of the present invention was measured after being dissolved in the methanol solvent.
Data set [4] in a line: Stability in solvent slurry system (interconversion of crystalline forms, final form identified by DSC). The note with it: Dimethyl acetamide: EA, solvent 3 vol, anti-solvent 20 vol.
A short description of data set [5]: Interconversion at high temperature (final form identified by DSC). The note with it: for Final form (DSC peak): dried at 80±5° C. in non-vacuum state, then cooled to 30±5° C., methanesulfonate; for Stability at high temperature: summary of Table 5. The protocol:
2) Measurement of Interconversion at High Temperature
In order to determine the interconversion of crystalline forms at a high temperature, each of Crystalline Forms 1 and 5 was dried at 80±5° C. in non-vacuum state, and then cooled to a temperature of 30±5° C. DSC analysis was performed for the obtained samples to identify the final crystalline form.

The mark [6] stands for this setting: Methanol: IPA, solvent 7 vol, anti-solvent 20 vol, methanesulfonate.
Setting [7] is: Methanol: n-butanol, solvent 7 vol, anti-solvent 20 vol, methanesulfonate.
[8] abbreviates: solvent system Acetonitrile 10 vol, no anti-solvent, methanesulfonate.
[9] abbreviates: solvent system Isopropyl alcohol (IPA) 10 vol, no anti-solvent, methanesulfonate.

`O=C(NC[C@H]1CN(c2ccc(N3CCNC=N3)cc2)C(=O)O1)c1ccc(Cl)s1` [Crystalline Form 5, 5-chloro-N-({(5S)-2-oxo-3-[4-(5,6-dihydro-4H-[1,2,4]triazin-1-yl)phenyl]-1,3-oxazolidin-5-yl}methyl)thiophene-2-carboxamide methanesulfonate]: the “Final form (DSC peak)” value in data set [1] (setting [6]) is recorded as “Crystalline Form 5 (186.80)”; in data set [1] (setting [7]), “Crystalline Form 5 (186.27)”; in data set [1] (setting [8]), “Crystalline Form 5 (186.88)”; in data set [1] (solvent system Ethyl acetate (EA) 10 vol, no anti-solvent) it was “Crystalline Form 5 (186.48)”; in data set [1] (solvent system Heptane 10 vol, no anti-solvent) it was “Crystalline Form 5 (186.44)”; in data set [1] (setting [9]), “Crystalline Form 5 (186.33)”. Besides, the “Final form (DSC peak)” value in data set [1] (solvent system Methyl tert-butyl ether (MTBE) 10 vol, no anti-solvent) is given as “Crystalline Form 5 (186.45)”; in data set [1] (solvent system n-butanol 10 vol, no anti-solvent), “Crystalline Form 5 (186.76)”; in data set [4], “Crystalline Form 5 (187.05)”; in data set [5], “Crystalline Form 5 (187.0)”. For the same compound, the “Interconversion of crystalline form while stirred in solvent” value in data set [1] (methanesulfonate) was “maintains the initial form”. The “Stability under physical stimulus” value in data set [2] is “stability without change of crystalline forms; also recorded: stable under physical stimulus”. The compound also yielded a solubility in data set [3] of 30 mg/mL. The “Stability at high temperature” value in data set [5] is “stable at high temperature”.
In the case of `O=C(NC[C@H]1CN(c2ccc(N3CCNC=N3)cc2)C(=O)O1)c1ccc(Cl)s1` [Crystalline Form 1, 5-chloro-N-({(5S)-2-oxo-3-[4-(5,6-dihydro-4H-[1,2,4]triazin-1-yl)phenyl]-1,3-oxazolidin-5-yl}methyl)thiophene-2-carboxamide methanesulfonate], the “Final form (DSC peak)” value is on record as “Mixed crystalline forms” in data set [1] (setting [6]); “Crystalline Form 5 (187.7)” in data set [1] (setting [7]); “Mixed crystalline forms” in data set [1] (setting [8]); “Mixed crystalline forms” in data set [1] (solvent system Hexane 10 vol, no anti-solvent); “Crystalline Form 5 (187.0)” in data set [1] (setting [9]); “Crystalline Form 1 (178.0)” in data set [5]. Moreover, in data set [1] (methanesulfonate), the “Interconversion of crystalline form while stirred in solvent” value is listed as “tends to convert into Crystalline Form 5”. Further, the Final form result was “Crystalline Form 1” in data set [2] (Humidification, stored at 30° C. and 90% RH for 24 hours); “Crystalline Form 1” in data set [2] (Manual grinding with pestle and mortar); “Crystalline Form 1” in data set [2] (Multi-milling at 3,000 rpm). Also, the “Stability under physical stimulus” value in data set [2] is “stability without change of crystalline forms; also recorded: stable under physical stimulus”. The same compound registered a solubility in data set [3] of 70 mg/mL. For the same compound, the “Stability at high temperature” value in data set [5] was “stable at high temperature”.
